Experimental data from patent publication US20130072506A1, “6,8-DISUBSTITUTED PURINE COMPOSITIONS” (priority 2011, published 2013).

Legend:
[1] = test system: human skin fibroblast line ASF-2; assay: Cell attachment of human skin fibroblasts; format: cell-based; conditions: six hours of treatment, 40 to 500 μM
Protocol: A) Growth characteristics: • (1) Cell attachment frequency: to rule out immediate toxicity; • (2) Cell survival: to rule out delayed toxicity; • (3) Growth rates: to determine cell division stimulatory/inhibitory potential;
Experimental Procedures. A stock solution of 4 mM for 6-furfurylamino-8-aminopurine and 8 mM for other compounds were prepared by dissolving about […] per ml 1N HCl, followed by its appropriate dilution by the addition of Hank's buffer. The stock solution was filter sterilized, stored at 4° C., and was used for experiments by dilution it in the cell culture medium as required.
(§1) All cell culture experiments were performed on early and mid passage cultures (about 20 to 40% lifespan completed) of normal human skin fibroblast line, designated ASF-2. In order to check the effects of test compounds on senescent cells, late passage cells with more than 90% lifespan completed were used. ASF-2 cell line was established from a mammary skin biopsy obtained from a young, non-smoking and healthy […] at the time of breast reduction operation. Normal culture conditions of medium (DMEM) containing antibiotics, 10% foetal calf serum, and incubation at 37° C. with 95% humidity were used. The effects of the test compounds were determined using the following procedures.

SKH-1 hairless mice [2] = assay: Hairless mouse assay: skin histology and skin compartment measurements; format: in vivo; conditions: H&E stained biopsies, after 3 weeks of treatment
Text: Experimental Design. 48 female SKH-1 hairless mice (5 weeks old, 20-25 grams, Charles River Laboratories, Wilmington, Mass.) are individually housed in filter-top cages, and acclimated for 5-7 days after delivery. The mice are divided into 8 treatment groups (n=6), including two different control groups (untreated control, vehicle control) and a therapeutic control (tretinoin 0.05% Renova™ cream). Cage cards are marked to indicate treatment groups 1-8. Water and mouse chow are provided ad libitum.
Topical Treatments. Beginning on Treatment Day 1, test products are applied topically each morning (Monday through Friday) after erythema evaluations for 3 weeks. Using a positive displacement pipette, 20 mg of each agent is applied to a 2 cm×2 cm area of the center midline of the back. The material was spread across the treatment area with the pipette tip.
Skin Histology. Skin biopsies are taken of each treatment site and untreated control skin. Biopsies are fixed in 4% neutral buffered formalin, embedded in paraffin, and stained with hematoxylin and eosin. The stained skin sections are examined to determine the effects of the treatment on epidermal, dermal, and stratum corneum histology. Biopsies are also microscopically examined for inflammatory cells.
Skin Compartment Measurements. The H&E stained biopsy slides were imaged using a trinocular Olympus BH-2 microscope fitted with a Microfire 2.1×3 Digital Camera. 100× images were digitized and stored on CD using MS Pictureframe and Microfire Software. All compartment images were measured using a calibrated micrometer. An average of three measurements of each compartment for two slide images per biopsy was obtained and tabulated, and means and standard deviations were calculated.

SKH-1 hairless mice [3] = assay: Hairless mouse assay: skin elasticity; format: in vivo; conditions: 3 weeks of topical treatment
Text: Evaluation of cutaneous effects of new topical compounds in the hirless mouse assay. The purpose of this study was to evaluate new topical compounds for their safety and efficacy as topical skin anti-aging treatments. The hairless mouse model is a well established model for studying the treatments of photoaging. This model has been used to study mechanisms, define effective treatment regimens and assess safety for retinoids and other anti-aging products. The present study was used to investigate a new class of anti-aging compounds in comparison to classical ones. Recent clinical studies have shown that this class of compounds improve the appearance of photodamaged skin and decrease transepidermal water loss (TEWL) without causing skin irritation. […] At baseline (prior to the 1st treatment), and weekly, the dorsal skin was measured for: transepidermal water loss (TEWL); skin moisture content; and skin elasticity. […]
Skin Moisture Content & Elasticity. […] This instrument is equipped with dual probes which are placed on the skin surface and a quantitative measurement taken of the respective parameters and the measurements recorded on an integrated computer. Mean measurements was determined for each treatment group over time, and comparative statistics used to evaluate product effectiveness. […]

[4] = test system: human skin fibroblast line ASF-2; assay: Actin staining (cytoskeletal organization); format: cell-based; conditions: young cells, after 3 days, treated vs untreated
Protocol: as §1
Actin staining. The pattern of cytoskeletal actin staining was studied by staining the cells with florescent ligand FITC-labelled Phalloidin, using a florescence microscope.

[5] = test system: mitochondria of ASF-2 cells; assay: JC-1 staining of mitochondria; format: cell-based, human; conditions: 3 days pre-treatment of dermal fibroblasts
Protocol: as §1
Briefly, stock solution of JC-1 (Sigma, M2128) was made at 1 mg/ml in dimethyl sulfoxide. Fresh staining solution […] was prepared by diluting the stock solution in warm (37° C.) culture medium supplemented with 10% calf serum (final conc. 1 μg/ml). Around 3000 cells/ml were seeded in 4 chambered flasks. After three days of incubation, medium is aspirated and one ml of JC-1 staining medium is added, after incubation for 10 mins a cover slip is quickly added and viewed under fluorescent microscope at excitation wavelengths of 488 and 647 nm. […] On depolarization, the orange red punctate staining is replaced by diffuse green monomer fluorescence.

[6] = test system: human skin fibroblast line ASF-2; assay: Senescence-specific beta-galactosidase staining; format: cell-based
Text: B) Cellular parameters: • (4) Cellular morphology: to evaluate cytoplasmic and nuclear stability; • (5) Cytoskeleton organization: to evaluate the stability of the cytoskeleton; • (6) Appearance of senescence-specific β-galactosidase: to rule out pro-aging effects; • (7) Lysosomal staining (Neutral red); • (8) JC-1 Staining of Mitochondria: for evaluation of mitochondrial function; • (9) Rejuvenation studies: for evaluation of reversion effect from aged phenotype to young phenotype; and
as §1

proteasome = assay: Proteasomal activity (chymotrypsin-like) in cell extracts; format: cell-based, human; conditions: 40 μM-200 μM
Protocol: as §1
Proteasomal activity. Chymotrypsin-like activity in cell extracts prepared from treated and untreated cells was determined by in vitro degradation of oligopeptides by the proteasome.

Question: How did the “Percent of cells attached” value [1] turn out when `Nc1nc2c(NCc3ccco3)ncnc2[nH]1` [Compound 82, 6-furfurylamino-8-aminopurine] was run?
Answer: not affected to any significant extent

Question: What about the skin compartment thickness (SKH-1 hairless mice [2]) of the same compound?
Answer: least effect on skin thickness

Question: And the skin elasticity (SKH-1 hairless mice [3])?
Answer: better than controls tested

Question: What about the actin staining pattern [4] of the same compound?
Answer: no obvious differences

Question: And the JC-1 staining [5]?
Answer: punctate orange-red fluorescent staining

Question: And the “number of prematurely senescent cells (beta-galactosidase staining)” value [6]?
Answer: did not show any increase

Question: What about the “improvement in the proteasomal activity” value (proteasome) of the same compound?
Answer: 5-10%

Question: What about the “inhibition of chymotrypsin-like proteasomal activity” value (proteasome; compared to untreated) of the same compound?
Answer: no inhibition
